Where no end group is shown, it is not given here. [ ]: non-standard residue; d: D form. hCit = NC(=O)NCCCC[C@H](N)C(=O)O
Experiments:
[1] = tested on: B16 HHDII/DP4 tumour cells; assay: Tumour therapy, B16 HHDII/DP4 tumour in HHDII/DP4 mice; type: in vivo, mouse; conditions: peptide with CpG/MPLA days 4, 11, 18
Description: (§1) To determine if the epitopes that stimulate T cell responses are presented on MHC-II within the tumour environment, our homocitrullinated peptides were checked for tumour therapy in B16 tumour models. Mice were implanted with tumour cells on day 1 and then immunised with peptides and CpG/MPLA on days 4, 11 and 18.
HHDII/DP4 mice were challenged with B16 HHDII/DP4 tumour cells and then immunised with ALDOA homocitrulline peptides (FIG. 19c).
Next, we aimed to determine if these cell populations play a role in carbamylation in the tumour microenvironment and are therefore necessary for the anti-tumour effect. HHDII/DP4 mice were implanted with tumour and then immunised with ALDOA homocitrulline peptides. Mice where then either untreated or treated with Ly6G or Ly6C depletion antibodies to remove either the neutrophils/G-MDSCs or monocytes/M-MDSCs, respectively Peptide vaccination was associated with 100% survival whereas peptide and Ly6G+antibody was associated with a slight but significant reduction in the anti-tumour effect (80% survival, p=0.04) (FIG. 23a).
Next, antibodies were used to deplete the Ly6C+ population (FIG. 23b). Ly6C depletion alone increased survival when compared to control (20% survival, p=0.0012). For this study vaccination alone gave 80% survival (p<0.0001).

[2] = tested on: B16HHDII/iDP4 tumour cells; assay: Tumour therapy, B16HHDII/iDP4 tumour in HHDII/DP4 mice; type: in vivo, mouse; conditions: peptide with CpG/MPLA
Protocol: For tumour challenge experiments, mice were challenged with B16F1 cells s.c. on the right flank 3 days before primary immunisation (unless stated otherwise) and subsequently immunised as above. Tumour implants were carried out at dose of 2.5×10^4 cells/mouse for B16F1, 2.5×10^4 cells/mouse for B16F1 DR4, 4×10^5 cells/mouse for B16F1 HHDII/DP4, 5×10^5 cells/mouse for B16 HHDII/DR1, 1×10^5 cells/mouse for B16F1 HHDII/inducibleDP4, 5×10^4 cells/mouse for B16F1 inducible DR4. For studies involving depletion antibodies, 250 μg anti-mouse Ly6C antibody (clone Monts, BioXcell) was administered i.p. on days 8, 10, 12, 15, 17 and 19. 400 μg anti-mouse Ly6G antibody (clone 1A8, Biolegend) was administered i.p. on day 8 followed by 250 μg on days 11, 15 and 18. Anti-human CD4 antibody (clone OKT4, BioXcell) or anti-mouse CD8 antibody (clone 2.43, BioXcell) were administered at 500 μg dose on day 4 followed by 300 μg dose on days 8 and 11. Tumour growth was monitored twice weekly and mice were humanely euthanised once tumour reached ≥15 mm in diameter.
To provide further evidence for the role of CD4 T cell responses in tumour therapy HHDII/DP4 mice were implanted with B16HHDII/iDP4 tumour cells on day 1 and then immunised with peptides and CpG/MPLA on days 4, 8 and 11. Concurrent with peptide immunisation mice were also treated with CD4 or CD8 depleting antibody and tumour growth monitored. […] To show whether cyanate/isocyanic acid can cross cell membranes B16F1 melanoma cell line was cultured in vitro in the presence or absence of potassium cyanate which is in dynamic equilibrium with isocyanic acid. As a positive control lysates were also produced from in vitro cultured B16F1 cells and then treated with or without KCNO.

[3] = tested on: C57BI/6 mice; assay: Ex vivo IFNγ ELISpot after peptide immunisation, C57Bl/6 mice; type: in vivo, mouse
Protocol: (§2) C57BL/6 mice (Charles River, UK), HLA-DR4 mice (Model #4149, Taconic, USA), HLA-A2/DR1 (HHDII/DR1, Pasteur Institute), HLA-A2.1+/+HLA-DP4+/+hCD4+/+ (HLA-HHDII/DP4) transgenic mice (EM: 02221, European Mouse Mutant Archive) described in patent WO2013/017545 A1 (EMMA repository, France) were used, aged between 8 and 12 weeks. Peptides were dissolved in PBS to 1 mg/ml and then emulsified (a series of dilutions) with CpG ODN 1826 and MPLA 6 μg/mouse of each (Invivogen, UK). Peptides (25 μg/mouse) were injected subcutaneously at the base of the tail. Mice were immunised at days 1, 7 and 14 for peptide immunisation. Spleens were removed for analysis at day 21 unless stated otherwise.
(§3) ELISpot assays were performed using murine IFNγ, IL-17 and IL-10 capture and detection reagents according to the manufacturer's instructions (Mabtech, Sweden). In brief, anti-IFNγ, IL-17 and IL-10 specific antibodies were coated onto wells of 96-well Immobilin-P plate. […] After incubation, captured IFNγ, IL-10 and IL-17 were detected by biotinylated anti-IFNγ, IL-10 and IL-17 antibodies and developed with a streptavidin alkaline phosphatase and chromogenic substrate. […] Spots were analysed and counted using an automated plate reader (Cellular Technologies Ltd).
Significant IFNγ responses were detected to peptide vimentin 116-135 Hcit. […]

[4] = tested on: splenocytes from immunised mice; assay: Ex vivo IL-10 ELISpot after peptide immunisation; conditions: mouse, in vivo
Protocol: as §2, §3

[5] = tested on: splenocytes from immunised mice; assay: Ex vivo IL-17 ELISpot after peptide immunisation; conditions: mouse, in vivo
Protocol: as §2, §3

[6] = tested on: B16F1 DR4 tumours; assay: Tumour therapy, B16F1 DR4 tumour in DR4 mice; type: in vivo, mouse; conditions: peptide with CpG/MPLA days 4, 11, 18
Description: as §1
HHDII/DR1 (FIG. 19a) or DR4 (FIG. 19b) transgenic mice were challenged with B16F1 HHDII/DR1 or B16F1 DR4 tumours respectively prior to immunisation with vimentin 116-135Hcit peptide and tumour growth and survival were monitored.

[7] = tested on: IFNγ-inducible B16 DR4 tumour; assay: Tumour therapy, IFNγ-inducible B16 DR4 tumour in HLA-DR4 mice; type: in vivo, mouse; conditions: peptide with CpG/MPLA
Description: To mimic the naturally occurring tumour, we engineered B16F1 cells to express HLA-DR4 under control of mouse IFNγ-inducible promoter. […] HLA-DR4 mice were then implanted with this IFNγ-inducible B16 DR4 tumour followed by immunisation with vimentin 116-135Hcit peptide (FIG. 19e).

[8] = tested on: tumour cells that were not able to express HLA-DR4; assay: Tumour therapy, B16F1 lacking DR4 in HLA-DR4 mice; type: in vivo, mouse; conditions: tumour without HLA-DR4
Description: (§4) This is also true in the ALDOA immunised mice.

[9] = tested on: B16F1 HHDII cells that cannot express DR1; assay: Tumour therapy, B16F1 HHDII lacking DR1 in HHDII/DR1 mice; type: in vivo, mouse; conditions: tumour without DR1
Description: as §4

“IGGVILFHETLYQ-hcit-ADDGRP (IGGVILFHETLYQ[hCit]ADDGRP) [Aldolase A 74-93 Hcit]” was tested. Which survival [1] did it give?
Its survival is 90%.

How did the “tumour growth / survival vs control” value [2] turn out when “LREYQELMNV-hcit-LALDIEI (LREYQELMNV[hCit]LALDIEI) [Cyk8 371-388 Hcit]” was run?
Its value is “Significant prevention of tumour growth”.

With “NYID-Hcit-VRFLEQQN-Hcit-ILLAEL (NYID[hCit]VRFLEQQN[hCit]ILLAEL) [Vimentin 116-135 Hcit]” as the substance, how does the “IFNγ ELISpot response” value [3] read?
The value was “no IFNγ responses were observed”.

And the “IL-10 ELISpot response” value [4]?
The value was “no production”.

And the “IL-17 ELISpot response” value [5]?
The value was “no production”.

And the overall survival [6]?
The overall survival was 70%.

And the survival [7]?
The survival was 40%.

What about the survival rate [8] of the same substance?
The survival rate was 20%.

What about the survival vs control [9] of the same substance?
Its survival vs control is “no survival advantage”.

“hcit-DGADFA-hcit-WRCVL-hcit-IGEH ([hCit]DGADFA[hCit]WRCVL[hCit]IGEH) [Aldolase A 140-157 Hcit]” was tested. Which survival [1] did it give?
The survival was 60%.

From patent publication US12458688B2, “Epitopes” (Scancell Limited, priority 2018, dated 2025)
